SMILES strings stand for the structures. Active and inactive are the calls of the source. The rule behind the calls is not given here.

Data set [1] deals with Canis familiaris. Description: Minimum effective dose was evaluated in mixed-breed or Beagle dogs after intravenous administration of the compound. The note with it: Canis lupus familiaris, read-out: MED. In kind it is functional.
Data set [2] has as its system Canis familiaris. Description: Antiarrhythmic activity was evaluated in mixed-breed or Beagle dogs after intravenous administration. In kind it is functional, Canis lupus familiaris, Heart.
The test system of data set [3] is Canis familiaris. Description: Activity duration index was evaluated in mixed-breed or Beagle dogs after intravenous administration. It is filed as functional, Canis lupus familiaris.
For data set [4], the system named is Canis familiaris. Briefly: Compound was evaluated for maximum reduction of ectopic beats after oral administration at a dose 15 mg/kg to dog. It is filed as functional, Canis lupus familiaris, Heart.
The subject of data set [5] is Canis familiaris. Description: Compound was evaluated for duration of action after oral administration at a dose 15 mg/kg to dog. It is filed as functional, Canis lupus familiaris.
The test system of data set [6] is Canis familiaris. Briefly: Compound was evaluated for onset of action after oral administration at a dose 15 mg/kg to dog. It is filed as functional, Canis lupus familiaris.
The subject of data set [7] is Canis familiaris. Description: Minimum effective dose evaluated in mixed-breed or Beagle dogs after intravenous administration. In kind it is functional. The note with it: Canis lupus familiaris, read-out: MED.
A short description of data set [8]: Therapeutic ratio in mixed-breed or Beagle dogs after intravenous administration of the compound. It is filed as ADME, Canis lupus familiaris. The note with it: dog, in vivo, read-out: TR.
Data set [9] has as its system Canis familiaris. Briefly: Compound was evaluated for maximum reduction of ectopic beats after oral administration at a dose 25 mg/kg to dog; L means lethal. It is filed as functional, organism-based. Also noted: dose 25 mg/kg. The note with it: Canis lupus familiaris; Heart.
The nature of data set [10]: Therapeutic ratio was evaluated in mixed-breed or Beagle dogs after intravenous administration of the compound. In kind it is ADME, Canis lupus familiaris. The note with it: dog, in vivo, read-out: TR.
For data set [11], the system named is Canis familiaris. Briefly: Compound was evaluated for duration of action after oral administration at a dose 25 mg/kg to dog. In kind it is functional, Canis lupus familiaris.
Data set [12] deals with Canis familiaris. Briefly: Compound was evaluated for onset of action after oral administration at a dose 25 mg/kg to dog. In kind it is functional, Canis lupus familiaris.
Data set [13] deals with Canis familiaris. Description: Compound was evaluated for maximum reduction of ectopic beats after oral administration at a dose 25 mg/kg to dog. In kind it is functional, Canis lupus familiaris, Heart.
The test system of data set [14] is Canis familiaris. Description: Compound was evaluated for maximum reduction of ectopic beats after oral administration at a dose 12 mg/kg to dog. It is filed as functional, Canis lupus familiaris, Heart.
The subject of data set [15] is Canis familiaris. Briefly: Compound was evaluated for duration of action after oral administration at a dose 12 mg/kg to dog. It is filed as functional, Canis lupus familiaris.
The subject of data set [16] is Canis familiaris. Briefly: Compound was evaluated for onset of action after oral administration at a dose 12 mg/kg to dog. It is filed as functional, Canis lupus familiaris.
Data set [17] relates to Canis familiaris. Briefly: Compound was evaluated for maximum reduction of ectopic beats after oral administration at a dose 25 mg/kg to dog; IA means inactive. In kind it is functional, organism-based. Set-up: dose 25 mg/kg. The note with it: Canis lupus familiaris; Heart.
Data set [18] relates to Canis familiaris. Description: Compound was evaluated for maximum reduction of ectopic beats after oral administration at a dose 15 mg/kg to dog; IA means inactive. It is filed as functional, organism-based. Also noted: dose 15 mg/kg. The note with it: Canis lupus familiaris; Heart.

Take `CC(C)N(CCC(CCN1CCOCC1)(C(N)=O)c1ccccc1Cl)C(C)C` (stereo not drawn): the minimal effective dose in the data set on Canis familiaris [1] came out at 11.7 mg/kg. In addition, the AR in the data set with Canis familiaris [2] is listed as 3.4. This compound registered an ADI with Canis familiaris [3] of 0.49.

For the compound `CC(C)N(CCC(CCN(C)C1CCCCC1)(C(N)=O)c1ccccc1)C(C)C` (stereo not drawn), in the data set with Canis familiaris [2], the AR stood at 7.1. Besides, in the data set with Canis familiaris [4], the Reduction is recorded as 69%. Also, the Duration in the data set on Canis familiaris [5] came to 30 min. In the data set with Canis familiaris [6], this compound showed an Onset of action of 300 min. Moreover, in the data set on Canis familiaris [7], the minimal effective dose worked out at 2.7 mg/kg. Moreover, in data set [8], the selectivity ratio was found to be 4.1. The ADI in the data set with Canis familiaris [3] is recorded as 1.36.

Take `CC(C)N(CCC(CCC1CCCCC1)(C(N)=O)c1ccccc1Cl)C(C)C` (stereo not drawn): in the data set on Canis familiaris [9], the Reduction result is “Lethal”. The selectivity ratio in data set [10] is 6.1. Further, the minimal effective dose with Canis familiaris [7] was determined as 3.5 mg/kg. The ADI with Canis familiaris [3] was 3.07.

Take `CC(C)N(CCC(CCN1CCCCC1)(C(N)=O)c1ccccc1F)C(C)C` (stereo not drawn): the results for the Duration in the data set with Canis familiaris [11] and in the data set on Canis familiaris [15] were 300 min and 90 min, respectively. Also, the values for the Onset of action with Canis familiaris [12] and with Canis familiaris [16] were 45 min and 90 min, respectively. Besides, the AR in the data set on Canis familiaris [2] was found to be 6. Also, the Reduction stood at 100% in the data set with Canis familiaris [13] and 67% in the data set on Canis familiaris [14]. Moreover, the minimal effective dose with Canis familiaris [7] stood at 1.8 mg/kg. Besides, in data set [8], the selectivity ratio turned out to be 18. Further, the ADI with Canis familiaris [3] is recorded as 1.47.

As for `CC(C)N(CCC(CCN(C(C)C)C(C)C)(C(N)=O)c1ccc(F)cc1)C(C)C`, the Duration in the data set on Canis familiaris [11] worked out at 147 min. The Onset of action with Canis familiaris [12] was 88 min. The AR with Canis familiaris [2] worked out at 6.7. Further, in the data set with Canis familiaris [13], the Reduction came out at 92%. Besides, the minimal effective dose in the data set with Canis familiaris [7] came to 2 mg/kg. Moreover, in [8], the selectivity ratio came to 12. The compound further had an ADI in the data set on Canis familiaris [3] of 1.19.

Compound `CC(C)N(CCC(CCN1CC2CCC(CC2)C1)(C(N)=O)c1ccccc1)C(C)C` (stereo not drawn) yielded an AR with Canis familiaris [2] of 7. In addition, the Reduction entry in the data set with Canis familiaris [17] is “inactive”. The minimal effective dose in the data set with Canis familiaris [7] is 2.5 mg/kg. For the same compound, the selectivity ratio in data set [8] came out at 12.5. In addition, the ADI in the data set with Canis familiaris [3] came out at 0.96.

`CC(C)N(CCC(CCN(C)C1CCCCC1)(C(N)=O)c1ccccc1F)C(C)C` (stereo not drawn): the Duration in the data set on Canis familiaris [11] was 150 min. For the same compound, the Onset of action with Canis familiaris [12] is on record as 203 min. In the data set on Canis familiaris [2], this compound had an AR of 6. This compound showed a Reduction in the data set with Canis familiaris [13] of 67%. In addition, the minimal effective dose with Canis familiaris [7] is 1.5 mg/kg. In addition, the selectivity ratio in [8] was 12.7. This compound also gave an ADI in the data set with Canis familiaris [3] of 0.98.

For the compound `CC(C)N(CCC(CCN(C(C)C)C(C)C)(C(N)=O)c1ccc(C(C)(C)C)cc1)C(C)C`, in data set [10], the selectivity ratio was found to be 4.9. The minimal effective dose in the data set with Canis familiaris [7] turned out to be 2 mg/kg. For the same compound, the ADI in the data set with Canis familiaris [3] turned out to be 1.35.

Regarding `CC(C)N(CCC(CCN(C(C)C)C(C)C)(C(N)=O)c1ccccc1F)C(C)C`, in the data set with Canis familiaris [11], the Duration was 200 min. For the same compound, the Onset of action in the data set with Canis familiaris [12] stood at 90 min. The compound further showed an AR in the data set on Canis familiaris [2] of 6.1. Further, the Reduction with Canis familiaris [13] is on record as 87%. Besides, the minimal effective dose in the data set on Canis familiaris [7] came out at 3 mg/kg. Further, in [8], the selectivity ratio was 15. For the same compound, the ADI in the data set on Canis familiaris [3] was found to be 1.52.

For the compound `CC(C)N(CCC(CCN(C(C)C)C(C)C)(C(N)=O)c1ccc(Cl)cc1)C(C)C`, the Duration in the data set on Canis familiaris [11] is greater than 330 min. This compound registered an Onset of action with Canis familiaris [12] of 30 min. Also, in the data set with Canis familiaris [2], the AR stood at 6.6. Besides, the Reduction in the data set on Canis familiaris [13] worked out at 100%. Further, the minimal effective dose in the data set with Canis familiaris [7] turned out to be 3 mg/kg. The selectivity ratio in data set [8] turned out to be 2.3. The compound further showed an ADI with Canis familiaris [3] of 0.86.

In the case of `CC(C)N(CCC(CCN1CCCCC1)(C(N)=O)c1ccccc1Cl)C(C)C` (stereo not drawn) [DISOBUTAMIDE], the Duration was greater than 360 min in the data set with Canis familiaris [11], 210 min in the data set with Canis familiaris [5] and 75 min with Canis familiaris [15]. In addition, the Onset of action is 80 min with Canis familiaris [12], 85 min in the data set on Canis familiaris [6] and 135 min with Canis familiaris [16]. This compound also showed an AR in the data set with Canis familiaris [2] of 8.4. The Max reduction with Canis familiaris [13] came to 100%; in the data set on Canis familiaris [4], 90%. In the data set on Canis familiaris [14], the Reduction was determined as 49%. Moreover, the minimal effective dose in the data set with Canis familiaris [7] is 3.3 mg/kg. Further, the selectivity ratio in data set [8] stood at 8.8. In the data set with Canis familiaris [3], this compound gave an ADI of 1.76.

As for `CC(C)N(CCC(CCN1CCCCC1)(C(N)=O)c1ccccc1)C(C)C` (stereo not drawn), the Duration in the data set on Canis familiaris [11] is greater than 300 min. The same compound displayed an Onset of action in the data set with Canis familiaris [12] of 169 min. In the data set with Canis familiaris [2], this compound had an AR of 6.1. In the data set on Canis familiaris [13], this compound yielded a Reduction of 97%. In the data set on Canis familiaris [7], the minimal effective dose came to 5.5 mg/kg. Further, the selectivity ratio in data set [8] is 8.2. The compound further had an ADI in the data set with Canis familiaris [3] of 0.45.

In the data set on Canis familiaris [11], `CC(C)N(CCC(C(N)=O)(c1ccccc1)c1ccccn1)C(C)C` (stereo not drawn) [DISOPYRAMIDE] had a Duration of 120 min. Also, the Onset of action in the data set with Canis familiaris [12] is on record as 172 min. This compound had an AR in the data set with Canis familiaris [2] of 4.1. In the data set with Canis familiaris [13], the Reduction was 79%. The minimal effective dose in the data set with Canis familiaris [7] turned out to be 6.6 mg/kg. For the same compound, the selectivity ratio in data set [8] turned out to be 6.6. Also, the Reduction entry in the data set on Canis familiaris [18] was “inactive”. The ADI in the data set with Canis familiaris [3] worked out at 0.5.

Source of the values: ChEMBL document CHEMBL1121621, “Synthesis and antiarrhythmic activity of alpha, alpha-bis[(dialkylamino)alkyl]phenylacetamides” (J Med Chem, 1980).
